{
  "source": "patent US9193951B2",
  "about": "“Differentiation method for production of glial cell populations” (Case Western Reserve University, priority 2010, dated 2015)",
  "format_in_all_cases": "cell-based, mice",
  "key": {"EpiSC-derived OPCs [1]": {"test_system": "EpiSC-derived OPCs", "test": "Modulation of OPC differentiation by extrinsic factors in T3 differentiation medium", "experimental": "(§1) For differentiation of OPCs into oligodendrocytes, cells were plated at 2.2×10^4 cells cm^−2 and induced with neural base medium supplemented with 0.4 ng ml^−1 T3 (Sigma-Aldrich, St. Louis, Mo.), 200 ng ml^−1 SHH, 100 ng ml^−1 noggin, 10 μM dibutyryl cyclic-AMP sodium salt, 100 ng ml^−1 IGF-1 and 10 ng ml^−1 NT3. Attempts to modulate the outcome of this differentiation paradigm included treatments with Jag1 (R&D Systems, Minneapolis, Minn.), CHIR99021 (Stemgent, San Diego, Calif.), LIF (Millipore, Billerica, Mass.) and/or BMP4 (R&D Systems, Minneapolis, Minn.).\nNext, the ability of extrinsic factors to modulate the differentiation of Epi-SC-derived OPCs was explored. […] As a simple proof-of-principle for using the system to screen for compounds, EpiSC-derived OPCs were exposed to three different treatment regimens involving modulation of signaling pathways (Notch, Wnt-β-catenin and BMP) previously implicated in oligodendrocyte development or differentiation. […] Using a similar protocol, the role of GSK3β, a negative regulator of Wnt-β-catenin signaling, was tested by treating EpiSC-derived OPCs with the GSK3β inhibitor CHIR99021."}, "EpiSC-derived OPCs [2]": {"test_system": "EpiSC-derived OPCs", "test": "Respecification of EpiSC-derived OPCs into astrocytes", "conditions": "combined treatment with BMP4 and LIF; majority of cells", "experimental": "as §1\nThe final treatment involved exposure of EpiSC-derived OPCs to signaling cascades known to respecify OPCs in vitro into an alternate glial fate, astrocytes."}, "EpiSC-derived OPCs [3]": {"test_system": "EpiSC-derived OPCs", "test": "Differentiation of EpiSC-derived OPCs into oligodendrocytes", "conditions": "day 2 of differentiation, absence of FGF2 and PDGF-AA, n>480 cells", "experimental": "as §1\nLive-cell staining was used for the cell-surface marker O4. Live cells were blocked with 10% normal goat serum and treated with O4 antibody for 20 min at 37° C. Cells were gently rinsed three times with warm neural base medium and fixed in 4% paraformaldehyde. […]\nTo determine the differentiation capacity of the EpiSC-derived OPCs, the EpiSc-derived OPCs were treated with thyroid hormone (T3), which is known to be important both in vitro and in vivo in regulating the transition of OPCs into oligodendrocytes, in the absence of both FGF2 and PDGF-AA. […] By day 4, the overwhelming majority of EpiSC-derived OPCs had become oligodendrocytes, though cell death and rare proliferation events made exact quantification challenging without large-scale time-lapse lineage analysis. […]"}, "[4]": {"test_system": "EpiSC-derived patterned neuroectoderm", "test": "Region-specific patterning of EpiSC-derived neuroectoderm", "conditions": "Day-4 neuroectoderm treated 1 day with retinoic acid and SHH in continued presence of noggin (combined)", "description": "On day 4, cultures were fed with neural base medium supplemented with 100 ng ml^−1 noggin, 10 μM retinoic acid (Sigma-Aldrich, St. Louis, Mo.; maintained as a 20 mM stock solution in DMSO) and 200 ng ml^−1 SHH (R&D Systems; C24II). To test whether the induced patterned neuroectoderm behaved as un-induced neuroectoderm behaves, the induced EpiSC-derived patterned neuroectoderm were patterned in a region-specific manner. […] Day-4 EpiSC-derived patterned neuroectoderm was treated for 1 day with specific concentrations of retinoic acid and SHH in the continued presence of noggin to pattern them in a region-specific way."}},
  "data": [
    {"molecule": "Jagged1: the Notch ligand Jagged1 (Jag1)", "values": [
      {"measurement": "rate or number of O4+ oligodendrocytes", "setting": "EpiSC-derived OPCs [1]; 2 days, T3 differentiation medium", "value": "did not impact"}
    ]},
    {"molecule": "Cc1c[nH]c(-c2cnc(NCCNc3ccc(C#N)cn3)nc2-c2ccc(Cl)cc2Cl)n1", "note": "[CHIR99021]", "values": [
      {"measurement": "expression of mature oligodendrocyte markers", "setting": "EpiSC-derived OPCs [1]; FIG. 5, treatment of OPCs", "value": "suppression"},
      {"measurement": "oligodendrocyte differentiation (progression of Olig2+ OPCs to O4+ oligodendrocytes)", "setting": "EpiSC-derived OPCs [1]; T3 differentiation medium, FIG. 5", "value": "concentration-dependent inhibition"}
    ]},
    {"molecule": "LIF: leukemia inhibitory factor, activator of JAK/STAT pathways", "values": [
      {"measurement": "respecification into astrocytes (morphological and gene expression changes)", "setting": "EpiSC-derived OPCs [2]", "value": "upregulation of GFAP"}
    ]},
    {"molecule": "N[C@@H](Cc1cc(I)c(Oc2ccc(O)c(I)c2)c(I)c1)C(=O)O", "note": "[T3, triiodothyronine]", "values": [
      {"measurement": "cells strongly O4+ with multiprocessed morphology", "setting": "EpiSC-derived OPCs [3]", "value": "greater than 64%"}
    ]},
    {"molecule": "noggin: a BMP antagonist; secreted polypeptide encoded by the NOG gene (protein, UniProt Q13253 28-232, looked up) Noggin: QHYLHIRPAPSDNLPLVDLIEHPDPIFDPKEKDLNETLLRSLLGGHYDPGFMATSPPEDRPGGGGGAAGGAEDLAELDQLLRQRPSGAMPSEIKGLEFSEGLAQGKKQRLSKKLRRKLQMWLWSQTFCPVLYAWNDLGSRFWPRYVKVGSCFSKRSCSVPEGMVCKPSKSVHLTVLRWRCQRRGGQRCGWIPIQYPIISECKCSC", "values": [
      {"measurement": "expression of OPC-relevant transcription factors Olig2 and Nkx2.2", "setting": "[4]", "value": "upregulation"}
    ]},
    {"molecule": "BMP4: bone morphogenetic protein 4, ligand of the TGF beta superfamily (protein, UniProt P12644 293-408, looked up) Bone morphogenetic protein 4: SPKHHSQRARKKNKNCRRHSLYVDFSDVGWNDWIVAPPGYQAFYCHGDCPFPLADHLNSTNHAIVQTLVNSVNSSIPKACCVPTELSAISMLYLDEYDKVVLKNYQEMVVEGCGCR", "values": [
      {"measurement": "respecification into astrocytes (morphological and gene expression changes)", "setting": "EpiSC-derived OPCs [2]", "value": "upregulation of GFAP"}
    ]}
  ]
}
